According to patent US20260235610A1, “METHOD OF PREDICTING SUCCESS OF A CANCER THERAPY” (IMMUSMOL SAS, priority 2023, published 2026):

Tests used:
TPH1 = target: T1, TPH1 (Homo sapiens, UniProt P17752); assay: Tryptophan metabolites (Trp, 5HTP, 5HT and ratios) in QGP1-conditioned media as surrogate of TPH1 activity; assay type: cell-based; details: QGP1 cells cultured 48 hours; for effect on C-Media decrease in Trp level and concomitant increase of 5HTP, 5HT, 5HTP/Trp and 5HT/Trp ratios: Telotristat 1 μM, PEA 300 μM, versus C-Media alone
T1 construct: QGP1 neuroendocrine tumor cell line characterized by a high TPH1 expression and activity; endogenous in cells; host or cells: QGP-1 neuroendocrine tumor cell line
T1 sequence (P17752 1-444): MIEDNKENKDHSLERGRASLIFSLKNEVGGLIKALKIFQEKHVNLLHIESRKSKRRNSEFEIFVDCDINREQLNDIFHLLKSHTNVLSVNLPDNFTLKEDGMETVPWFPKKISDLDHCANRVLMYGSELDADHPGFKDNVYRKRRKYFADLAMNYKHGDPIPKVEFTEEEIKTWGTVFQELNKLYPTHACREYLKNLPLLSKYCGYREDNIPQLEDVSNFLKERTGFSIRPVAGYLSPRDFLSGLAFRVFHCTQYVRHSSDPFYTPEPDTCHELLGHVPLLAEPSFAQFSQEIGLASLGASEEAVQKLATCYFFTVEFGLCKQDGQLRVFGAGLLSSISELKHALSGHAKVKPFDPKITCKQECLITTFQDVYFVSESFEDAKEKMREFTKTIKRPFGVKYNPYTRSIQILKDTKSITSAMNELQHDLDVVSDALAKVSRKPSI
Procedure: The impact of TPH1^High conditioned culture media (C-Media) on immune cell activation was evaluated. QGP1 neuroendocrine tumor cell line characterized by a high TPH1 expression and activity was cultured over a 48-hour period in the presence and absence of Telotristat (TPH1 inhibitor) or Phenethylamine (PEA) alone and in the presence of Telotristat.
The media characteristics were as follows: • i) NC-Media • ii) C-Media • iii) C-Media+Telotristat (TPH1 inhibitor) • iv) C-Media+Phenethylamine (PEA) • v) C-Media+Telotristat (TPH1 inhibitor)+Phenethylamine (PEA)
(§1) The QGP-1 cell line was cultured in RPMI-1640 medium, supplemented with 10% (v/v) FCS and penicillin-streptomycin in a humidified incubator at 5% CO2 and 37° C. In order to prepare the conditioned media, cells were cultured in 6-well plates for 48 hours in the presence and absence of Telotristat (1 μM), a TPH1 inhibitor, and in the presence and absence of Phenethylamine (PEA; 300 μM), a TPH1 inducer (Zhai et al., 2023). QGP1-conditioned media (C-Media) were used to culture human PBMCs (Peripheral Blood Mononuclear Cells) originating from one healthy donor for a 72-hour period under anti-CD3 activation (0.5 μg/mL). As control, fresh cell culture media (Non-Conditioned Media (NC-Media) was used.
Each analytes-Tryptophan (Trp), 5-hydroxyTryptopan (5HTP) and Serotonin (5HT)-were measured individually and then used to calculate ratio, i.e. 5HTP/Trp and 5HT/Trp as representative surrogate of TPH1 activity.
Tryptophan was quantified using an immunoassay (#BA-E-2700, ImmuSmol, Bordeaux, FRANCE). Briefly, in order to remove proteins, 20 μL of sample were precipitated, vortexed and then centrifuged for 15 minutes (3,000 g, at 4° C.). Twenty five microliters of supernatant were then used for derivatization for a 2 hour period at room temperature. Once the derivatization was achieved, 25 μL of the solution was applied on a 96-microtiters prior addition of 50 μL of anti-Tryptophan antiserum. […]
5-HdroxyTryptophan was quantified using an immunoassay. […]
Serotonin was quantified using an immunoassay (#BA-E-5900R, ImmuSmol, Bordeaux, FRANCE). […]

human PBMCs = assay: anti-CD3 mediated PBMCs activation in QGP1-conditioned media, IFN-γ measurement by HTRF; assay type: cell-based; details: anti-CD3 0.5 μg/mL; for effect on C-Media induced decrease in anti-CD3 mediated PBMCs activation (IFN-γ): PBMCs of one healthy donor, 72 hours, conditioned media prepared with Telotristat 1 μM or PEA 300 μM
Procedure: Culture supernatant was then collected and applied on peripheral blood mononuclear cells (PBMCs) cultivated under anti-CD3-based activation for 3-days.
as §1
At the end of PBMCs treatment period as described above, cell culture supernatants were collected and subjected to IFN-γ measurement by mean of HTRF (Homogeneous Time Resolved Technology, Perkin Elmer) which serves as a surrogate of immune cell activation (FIG. 12). HTRF is a standard technique well-known in the art and therefore perfectly within the routine of the skilled person.

## NCCc1ccccc1 [PEA, Phenethylamine]
TPH1
  effect on C-Media decrease in Trp level and concomitant increase of 5HTP, 5HT, 5HTP/Trp and 5HT/Trp ratios: further increased
Human PBMCs
  effect on C-Media induced decrease in anti-CD3 mediated PBMCs activation (IFN-γ): increased

## Cc1ccn(-c2cc(Cl)ccc2[C@@H](Oc2cc(-c3ccc(C[C@H](N)C(=O)O)cc3)nc(N)n2)C(F)(F)F)n1 [Telotristat]
TPH1; Telotristat 1 μM plus PEA 300 μM
  effect on PEA-induced TPH1 activity: able to limit PEA-induced TPH1 activity
TPH1
  effect on C-Media decrease in Trp level and concomitant increase of 5HTP, 5HT, 5HTP/Trp and 5HT/Trp ratios: largely limited
Human PBMCs; PBMCs 72 hours, conditioned media prepared with Telotristat 1 μM plus PEA 300 μM
  effect on the more limited immune cell activation associated with PEA-induced TPH1 activation (IFN-γ): alleviated
Human PBMCs
  effect on C-Media induced decrease in anti-CD3 mediated PBMCs activation (IFN-γ): limited
